The text below walks through data of patent US20250388593A1 (MITSUBISHI TANABE PHARMA CORPORATION, priority 2023, published 2025).

A value given as a limit tells only on which side of the number the result lay.

In the assay the target is CRBN truncate (318-426) (Homo sapiens (Human), UniProt Q96SW2). In words: Measurement of molecular interactions using surface plasmon resonance (SPR), Biacore T200. In kind it is binding. To be noted: 25° C., immobilized CRBN truncate, upper limit of measurement 200 μM. The method in brief: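 C-terminally Avi-tagged CRBN (318-426) captured on a streptavidin SA chip on a Biacore T200. Running buffer 10 mM HEPES pH 7.5, 150 mM NaCl, 1 mM TCEP, 0.005% Tween 20, 2% DMSO; 60 s contact, 120 s dissociation.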
Sequence of CRBN truncate (318-426) (Q96SW2 318-426): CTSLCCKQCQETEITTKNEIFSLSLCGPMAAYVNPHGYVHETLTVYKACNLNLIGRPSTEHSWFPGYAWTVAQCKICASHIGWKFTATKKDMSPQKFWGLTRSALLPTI
Background: SPR reads the build-up and loss of mass on a sensor chip optically.
As usually defined, the Kd is the constant that tells how readily two partners part at equilibrium. Higher therefore signals weaker binding. `O=C(O)CCCCCCCc1nn(C2CCCC(=O)NC2=O)c2ccccc12` (centres unmarked) [Example 209, 8-[1-(2,7-Dioxoazepan-3-yl)indazol-3-yl]octanoic acid]: the dissociation constant Kd was at least 100 µM.

Consider `CC(C)(C)OC(=O)c1ccc(N2CCC3(CC2)COCC(=O)NC3=O)nc1` [Example 16, tert-Butyl 6-(10,12-dioxo-8-oxa-3,11-diazaspiro [5.6]dodecan-3-yl) pyridine-3-carboxylate], for which the Kd is at least 100 µM.

The molecule `Cc1sc2c(c1C)C(c1ccc(Cl)cc1)=N[C@@H](CC(=O)NCCCCCCCCCCC(=O)N1CCC(c3cccc(NC45CCC(CC4)C(=O)NC5=O)c3)CC1)c1nnc(C)n1-2` [Example 355, 2-[(9S)-7-(4-chlorophenyl)-4,5,13-trimethyl-3-thia-1,8,11,12-tetraazatricyclo[8.3.0.02,6]trideca-2(6),4,7,10,12-pentaen-9-yl]-N-[11-[4-[3-[(2,4-dioxo-3-azabicyclo[3.2.2]nonan-1-yl)amino]phenyl]piperidin-1-yl]-11-oxoundecyl]acetamide] came in with a Kd of 50 to 100 µM.

On to `CC(C)(C)OC(=O)c1ccc(N2CCCC3(CCCC(=O)NC3=O)C2)nc1` (centres unmarked) [Example 93, tert-Butyl 6-(7,9-dioxo-2,8-diazaspiro [5.6]dodecan-2-yl) pyridine-3-carboxylate], for which the dissociation constant Kd is at least 100 µM.

For `O=C1CCCC2(CCN(c3ccc([N+](=O)[O-])cn3)C2)C(=O)N1` (centres unmarked) [Example 75, 2-(5-nitro-2-pyridyl)-2,7-diazaspiro[4.6]undecane-6,8-dione], the Kd is under 50 µM.

As for `O=C1CCCC(CNc2ccc(F)cc2)C(=O)N1` (centres unmarked) [Example 25, 3-[(4-Fluoroanilino)methyl]azepane-2,7-dione], the dissociation constant Kd is at least 100 µM.

Molecule `CC(C)(C)OC(=O)NCc1cn(C2CCCC(=O)NC2=O)nn1` (centres unmarked) [Example 1, tert-Butyl N-[[1-(2,7-dioxoazepan-3-yl)triazol-4-yl]methyl]carbamate] yielded an equilibrium dissociation constant (Kd) of at least 100 µM.

Molecule `Cc1sc2c(c1C)C(c1ccc(Cl)cc1)=N[C@@H](CC(=O)NCCCCCCc1ccc(-c3cn(C4CCCC(=O)NC4=O)nn3)cc1)c1nnc(C)n1-2` (stereo partly drawn) [Example 316, 2-[(9S)-7-(4-chlorophenyl)-4,5,13-trimethyl-3-thia-1,8,11,12-tetraazatricyclo[8.3.0.02,6]trideca-2(6),4,7,10,12-pentaen-9-yl]-N-[6-[4-[1-(2,7-dioxoazepan-3-yl)triazol-4-yl]phenyl]hexyl]acetamide] showed a Kd of under 50 µM.

Molecule `O=C1COCC2(CCN(C(=O)c3ccccc3)CC2)C(=O)N1` [Example 13-2, 3-benzoyl-8-oxa-3,11-diazaspiro[5.6]dodecane-10,12-dione] gave a Kd of at least 100 µM.

Consider `CC(=O)Nc1ccc(Cl)c(C2CCCC(=O)NC2=O)c1` (centres unmarked) [Example 65, N-[4-Chloro-3-(2,7-dioxoazepan-3-yl)phenyl]acetamide], for which the equilibrium dissociation constant (Kd) is at least 100 µM.

`CC(C)(C)OC(=O)c1ccnc(N2CCC3(CCCC(=O)NC3=O)C2)c1` (centres unmarked) [Example 91, tert-Butyl 2-(6,8-dioxo-2,7-diazaspiro [4.6]undecan-2-yl) pyridine-4-carboxylate]: the Kd lay within 50 to 100 µM.

`CC(C)(C)OC(=O)Nc1ccccc1-c1cn(C2CCCC(=O)NC2=O)nn1` (centres unmarked) [Example 6, tert-Butyl N-[2-[1-(2,7-dioxoazepan-3-yl)triazol-4-yl]phenyl]carbamate] showed a Kd of at least 100 µM.

The molecule `COc1ccc2nc(N3CCC4(CCCC(=O)NC4=O)C3)sc2c1` (centres unmarked) [Example 187, 2-(6-Methoxy-1,3-benzothiazol-2-yl)-2,7-diazaspiro[4.6]undecane-6,8-dione] registered an equilibrium dissociation constant (Kd) of 50 to 100 µM.

In turn, `Cc1sc2c(c1C)C(c1ccc(Cl)cc1)=N[C@@H](CC(=O)NCCCCCCCCNC(=O)/C=C/c1ccc([C@H]3C[C@H](N4C=CCC(=O)NC4=O)C(=O)N3C)cc1)c1nnc(C)n1-2` (relative stereo) [Example 349, (E)-N-[8-[[2-[(9S)-7-(4-chlorophenyl)-4,5,13-trimethyl-3-thia-1,8,11,12-tetrazatricyclo[8.3.0.02,6]trideca-2(6),4,7,10,12-pentaen-9-yl]acetyl]amino]octyl]-3-[4-[(2R*,4S*)-4-(2,4-dioxo-5H-1,3-diazepin-1-yl)-1-methyl-5-oxopyrrolidin-2-yl]phenyl]prop-2-enamide] yielded a Kd of under 50 µM.

Regarding `O=C1CCCC(n2nnc3ccccc32)C(=O)N1` (centres unmarked) [Example 250, 3-(Benzotriazol-1-yl)azepine 2,7-dione], the dissociation constant Kd is at least 100 µM.

Molecule `Cc1sc2c(c1C)C(c1ccc(Cl)cc1)=N[C@@H](CC(=O)NCCCCCCCCCCC(=O)N1CCC(c3cnc(N4CCC5(CCCC(=O)NC5=O)C4)nc3)CC1)c1nnc(C)n1-2` (stereo partly drawn) [Example 354, 2-[(9S)-7-(4-Chlorophenyl)-4,5,13-trimethyl-3-thia-1,8,11,12-tetraazatricyclo[8.3.0.02,6]trideca-2(6),4,7,10,12-pentaen-9-yl]-N-[11-[4-[2-(6,8-dioxo-2,7-diazaspiro[4.6]undecan-2-yl)pyrimidin-5-yl]piperidin-1-yl]-11-oxoundecyl]acetamide] yielded a dissociation constant Kd of under 50 µM.

The molecule `CC(C)(C)OC(=O)c1ccc(N2CCC3(CCCC(=O)NC3=O)C2)nc1` (centres unmarked) [Example 90-1, tert-Butyl 6-(6,8-dioxo-2,7-diazaspiro [4.6]undecan-2-yl) pyridine-3-carboxylate] showed a Kd of under 50 µM.

As to `O=C1CCCC2(CCN(c3ncc([N+](=O)[O-])cc3Cl)C2)C(=O)N1` (centres unmarked) [Example 77, 2-(3-chloro-5-nitro-2-pyridyl)-2,7-diazaspiro[4.6]undecane-6,8-dione], the dissociation constant Kd is under 50 µM.

As for `NC(=O)c1nn(-c2ccc(C(=O)NCCOCCOCCNC(=O)CN3CCC4(CCCC(=O)NC4=O)CC3=O)cc2)cc1NC(=O)c1coc(-c2ccnc(NCC3CC3)c2)n1` (centres unmarked) [Example 144, N-[3-Carbamoyl-1-[4-[2-[2-[2-[[2-(4,7,9-trioxo-3,8-diazaspiro [5.6]dodecan-3-yl)acetyl]amino]ethoxy]ethoxy]ethylcarbamoyl]phenyl]pyrazol-4-yl]-2-[2-(cyclopropylmethylamino)-4-pyridyl]oxazole-4-carboxamide], the Kd is under 50 µM.

The molecule `CN1C(=O)[C@H](N2C=CCC(=O)NC2=O)C[C@H]1c1ccc(/C=C/C(=O)OC(C)(C)C)cc1` (relative stereo) [Example 290, tert-Butyl (E)-3-[4-[(2S*,4R*)-4-(2,4-dioxo-5H-1,3-diazepin-1-yl)-1-methyl-5-oxopyrrolidin-2-yl]phenyl]prop-2-enoate] returned a dissociation constant Kd of at least 100 µM.

Take `Cc1sc2c(c1C)C(c1ccc(Cl)cc1)=N[C@@H](CC(=O)NCCCCCCCCCCC(=O)N1CCC(c3ccc(C45CCC(O4)C(=O)NC5=O)cc3)CC1)c1nnc(C)n1-2` (stereo in doubt) [Example 358, 2-[(9S)-7-(4-chlorophenyl)-4,5,13-trimethyl-3-thia-1,8,11,12-tetraazatricyclo[8.3.0.02,6]trideca-2(6),4,7,10,12-pentaen-9-yl]-N-[11-[4-[4-[(1R*,5R*)-2,4-dioxo-8-oxa-3-azabicyclo[3.2.1]octan-1-yl]phenyl]-1-piperidyl]-11-oxo-undecyl]acetamide]: the Kd was under 50 µM.

With `CC(C)(C)OC(=O)c1ccnc(N2CC3(CC(=O)N(C4CCC(=O)NC4=O)C3=O)C2)c1` (centres unmarked) [Example 46, tert-Butyl 2-[6-(2,6-dioxopiperidin-3-yl)-5,7-dioxo-2,6-diazaspiro[3.4]octan-2-yl]pyridine-4-carboxylate], the Kd is 50 to 100 µM.

For the molecule `CC1(N2CC=CC(=O)NC2=O)C(=O)N(CC(=O)OCc2ccccc2)c2ccccc21` (centres unmarked) [Example 283, Benzyl 2-[3-(2,7-dioxo-4H-1,3-diazepin-3-yl)-3-methyl-2-oxoindol-1-yl]acetate], the dissociation constant (Kd) lay in the range of 50 to 100 µM.

The molecule `O=C1CCCC2(CCN(c3ccc(C(F)(F)F)cn3)C2)C(=O)N1` (centres unmarked) [Example 38, 2-[5-(trifluoromethyl)-2-pyridyl]-2,7-diazaspiro[4.6]undecane-6,8-dione] displayed an equilibrium dissociation constant (Kd) of at least 100 µM.

`N#Cc1ccc(N2CCC3(CCCC(=O)NC3=O)C2)cc1` (centres unmarked) [Example 179, 4-(6,8-Dioxo-2,7-diazaspiro[4.6]undecan-2-yl)benzonitrile]: the dissociation constant (Kd) is under 50 µM.

In turn, `Nc1ccc(N2CCC3(CCCC(=O)NC3=O)C2)c(F)c1` (centres unmarked) [Example 86, 2-(4-Amino-2-fluorophenyl)-2,7-diazaspiro[4.6]undecane-6,8-dione] displayed an equilibrium dissociation constant (Kd) of at least 100 µM.

Molecule `COC(=O)c1ccc(CN2CC3(CC(=O)N(C4CCC(=O)NC4=O)C3=O)C2)cc1` (centres unmarked) [Example 54, Methyl 4-[[6-(2,6-dioxopiperidin-3-yl)-5,7-dioxo-2,6-diazaspiro[3.4]octan-2-yl]methyl]benzoate] displayed a Kd of 50 to 100 µM.

The molecule `Cc1sc2c(c1C)C(c1ccc(Cl)cc1)=N[C@@H](CC(=O)NCCCCCCCCNC(=O)c1ccc3nc(N4CC5(CC(=O)N(C6CCC(=O)NC6=O)C5=O)C4)sc3c1)c1nnc(C)n1-2` (stereo partly drawn) [Example 337, N-[8-[[2-[(9S)-7-(4-chlorophenyl)-4,5,13-trimethyl-3-thia-1,8,11,12-tetraazatricyclo[8.3.0.02,6]trideca-2(6),4,7,10,12-pentaen-9-yl]acetyl]amino]octyl]-2-[6-(2,6-dioxopiperidin-3-yl)-5,7-dioxo-2,6-diazaspiro[3.4]octan-2-yl]-1,3-benzothiazole-6-carboxamide] returned a Kd of under 50 µM.

Turning to `O=C1CCCC2(CCN(c3ccc([N+](=O)[O-])cc3Cl)C2)C(=O)N1` (centres unmarked) [Example 84, 2-(2-Chloro-4-nitrophenyl)-2,7-diazaspiro[4.6]undecane-6,8-dione], the dissociation constant Kd is under 50 µM.

The molecule `Cn1c(=O)n([C@@H]2CCCC(=O)NC2=O)c2cccc(I)c21` (single isomer, unassigned) [Example 211, 3-(4-Iodo-3-methyl-2-oxobenzimidazol-1-yl) azepane-2,7-dione] showed a Kd of 50 to 100 µM.

`CC(C)(C)OC(=O)NCCCNc1nccc(N2CC3(CC(=O)N(C4CCC(=O)NC4=O)C3=O)C2)n1` (centres unmarked) [Example 233] gave a Kd of at least 100 µM.

`COc1cc(N2CCC3(CCCC(=O)NC3=O)C2)ccc1[N+](=O)[O-]` (centres unmarked) [Example 41, 2-(3-Methoxy-4-nitrophenyl)-2,7-diazaspiro[4.6]undecane-6,8-dione] showed a Kd of at least 100 µM.
